Assay results taken from patent US4060652A (priority 1976, dated 1977).
Where two headings read alike, the source gives them in different places.

Legend:
[1] = Lethality by paralysis of respiratory muscles in rabbits; conditions: rabbit, in vivo
Excerpt: In another series of experiments, we determined the intravenous dose of the muscle relaxants that caused death of 50% of the animals due to paralysis of the respiratory muscles -- lethal dose 50% (LD50).

[2] = tested on: nervomuscular conduction, anterior tibial muscle; test: Neostigmin antagonism of nervomuscular block in cats; assay type: in vivo
Protocol: (§1) Cats were narcotized (with chloralose, 50 mg per kg body weight, and urethane, 500 mg/kg, intraperitoneally) or decerebrated at the quadrigeminal bodies level. The lungs were ventilated artificially whenever necessary. Contractions of the anterior tibial muscle were recorded in isotonic concitions in response to electric stimulation of the peripheral part of n. peroneus with supramaximum pulses of 0.1 msec at a frequency of 0.1-100 Hz.
For example, even with a 5-fold dose of tercuronium, muscle contractility was restored already in 2 to 5 minutes following a single injection of neostigmin in a dose of 0.1 mg/kg, and in 15-20 minutes the recovery of the contactile function was complete.
In the case of pancuronium and α-tubocurarin, the restoration within these short periods of time could only be attained with 2-3 fold doses of these muscle relaxants. If the dose of pancuronium was increased 4 to 5 times, weak contractions of the muscle were observed not sooner than in 9 to 10 minutes and the contraction was, restored completely only 30 minutes after the injection of neostigmin (six experiments). The restoration of muscle contractility is delayed even longer in the case of α-tubocurarin.

rabbits = test: Head-drop test in non-narcotized rabbits; assay type: in vivo
Protocol: In experiments (a total of twenty) on non-narcotized rabbits, the head-drop dose (HDD) was 0.022 ± 0.009 micromole/kg A complete blocking effect developed 1.5 to 2 minutes after administration of Tercuronium and persisted for 3 to 5 minutes. A few minutes later, the animal behaviour normalized. The same effect was attained with 0.18 ± 0.02 micromole/kg of α-tubocurarin (6 experiments) and 0.018 ± 0.001 mcM/kg of pancuronium (6 experiments). The time of onset and the duration of the blocking effect with all the three preparations were the same.

albino mice = test: Inhibition of turning from the lateral position in mice; assay type: in vivo; conditions: Mus musculus, iv; mice, turning from the lateral position; read-out: ED50
Excerpt: (§2) In experiments on albino mice, the dose of Tercuronium injected into the tail vein, that inhibited the symptom of turning from the lateral position in 50 percent of mice (ED50) was 0.06 mcM/kg (18 experiments); and 50 percent of mice perished from paralysis of the respiratory muscles (LD50) following an injection of 0.09 mcM/kg of Tercuronium.

[3] = Lethality by paralysis of respiratory muscles in mice; conditions: mouse, in vivo, iv
Excerpt: as §2

[4] = tested on: nervomuscular conduction, anterior tibial muscle; test: Nervomuscular block in cats, indirect stimulation of anterior tibial muscle; assay type: in vivo
Protocol: The preparation was studied in acute experiments on cats, rabbits, mice and pigeons, in experiments on phrenico-diaphragm preparations of rats, and also on the straight muscle of a frog abdomen. The properties of Tercuronium were compared with those of α-tubocurarin and pancuronium.
as §1

respiration = test: Inhibition of respiration in narcotized and decerebrated cats (and rabbits); assay type: in vivo
Excerpt: This developed simultaneously with the block of the nervomuscular conduction in the anterior tibial muscle. […] The same result was obtained in experiments on rabbits. The ratio of LD50 in experiments on rabbits and mice, as specified above, also provides data on the that Tercuronium produces on respiration.

[5] = tested on: nervomuscular conduction, ganglia, circulation; conditions: cited from earlier work
arterial pressure = test: Effect on arterial pressure in cats and rabbits; assay type: in vivo
Protocol: Experiments were carried out on narcotized cats and rabbits (50 mg/kg of chloralose and 500 mg/kg urethane, intraperitoneally) and also on cats decerebrated at the quadrigeminal level. The blood pressure in the carotid artery was recorded with a mercury pressure gauge. The preparations were injected intravenously.
When Tercuronium was given in a quantity ten times exceeding the myoparalytic dose (0.8 mcM/kg) an insignificant and transient reduction (10 to 20 mm Hg) of the blood pressure was observed. The animals (7 cats and 5 rabbits) tolerated injections of very large doses of Tercuronium, viz., 10-20 mcM/kg, which is 200 times higher than the myoparalytic dose. […] In all experiments, in 1 to 2 hours, the arterial pressure restored completely or was close to the initial level.

[6] = Effect on sympathetic ganglia, third eyelid contraction in cats; assay type: in vivo; conditions: cat, in vivo, iv, read-out: ganglioblocking dose as multiple of myoparalytic dose
Protocol: Experiments were carried out on narcotized cats. A peripheral part of the sympathetic column on the neck was stimulated with electric pulses at 5 Hz. The duration of the stimulus was 1 msec, the amplitude 5 V. The contractions of the third eyelid (nictiating membrane) and the arterial (carotid) pressure were recorded with a mercury pressure gauge. We determined the intravenous dose of Tercuronium, α-tubocurarin and pancuronium that decreased the height of contraction of the third eyelid by 50 to 60 percent in conditions of prolonged stimulation of the sympathetic column.

[7] = tested on: nervomuscular conduction, vegetative ganglia, circulation; test: Overall conclusions from animal experiments; assay type: in vivo, animals
Excerpt: The results of the pharmacological studies of the proposed muscle relaxant Tercuronium, as compared with the known muscle relaxants, enable us to make the following conclusions.

In the case of `CC(=O)O[C@H]1C[C@@H]2CC[C@@H]3[C@H](CC[C@@]4(C)[C@H]3C[C@H]([N+]3(C)CCCCC3)[C@@H]4OC(C)=O)[C@@]2(C)C[C@@H]1[N+]1(C)CCCCC1` [pancuronium, reference compound], the LD50 ([1]; intravenous) is reported as 0.026 µmol/kg, the selectivity ratio ([1]; read-out: LD50 to HDD ratio) is reported as 1.4 and the “multiple of dose at which restoration within the short periods could be attained” value ([2]; cats, neostigmin) is reported as 2-3 fold. The “time to complete restoration of contraction after neostigmin” value ([2]; dose increased 4 to 5 times, six experiments) was 30 min, the “number of myoparalytic doses whose blocking effect is completely removed by neostigmin” value ([2]; neostigmin 0.1 mg/kg intravenous, within five minutes) was “three” and the ED (head drop) (rabbits; Oryctolagus cuniculus, non-narcotized rabbits, read-out: head-drop dose (HDD)) was 0.018 ± 0.001 µmol/kg. The “time of onset and duration of blocking effect, comparison” value (rabbits; all three preparations) was “the same”, the ED50 (albino mice) was 0.042 µmol/kg and the LD50 [3] was 0.062 µmol/kg. For the same molecule, the selectivity ratio ([3]; read-out: width of the muscle relaxing action (LD50/ED50)) was 1.5, the “mean duration of effect” value [4] was “nine” and the ED (95-100) ([4]; Felis catus, intravenous, 0.1 Hz, read-out: dose blocking nervomuscular conduction (95-100 percent)) was 0.04 ± 0.001 µmol/kg. For the same molecule, the “inhibition of respiration by blocking doses, comparison” value (respiration; from LD50 to ED50 ratio) was “equally inhibit respiration”, the effect on respiration (respiration; narcotized and decerebrated cats) was “The same effect was observed” and the “conditions for tracheal intubation” value ([5]; 0.15 mg/kg) was “favourable conditions for tracheal intubation are provided”. The “duration of myoparalytic action” value ([5]; background) was “lasts for the same period of time as that of α-tubocurarin”, the “fold less active than α-tubocurarin in blocking conduction in sympathetic ganglia” value ([5]; background) was 2.5 times and the “histamine release, ganglia and circulatory effects” value (“histamine release” below) ([5]; background) was “often accelerates the pulse rate and increases arterial pressure”. For the same molecule, the “removal of myoparalytic action by proserpin” value ([5]; background) was “can be removed with proserpin, and cases with difficult decurarization occur less frequently than with α-tubocurarin”, the “histamine release” value ([5]; background, listed as Pancuronium) was “does not induce production of histamine from tissues, nor does it lower arterial pressure” and the “effect on arterial pressure of 20-fold dose” value (arterial pressure; 20-fold dose) was “moderately depressive”. For the same molecule, the “arterial pressure on doses that inhibit respiration” value (arterial pressure; active ventilation of the lungs) was “asphyxial rise in the arterial pressure”, the “effect on arterial pressure of myoparalytic (complete block) dose” value (arterial pressure; artificial ventilation) was “the arterial pressure did not drop either” and the selectivity ratio [6] was 30. For the same molecule, the “arterial pressure and pulse rate” value ([7]; in vivo) was “stable rise in the arterial pressure, which results in increased hemorrhage in surgical operations and in accelerated pulse rate” and the “histamine, vegetative ganglia, blood pressure and heart frequency” value ([7]; myoparalytic dose) was “do not produce histamine or block vegetative ganglia”.

For `CC[N+](CC)(CC)CCOc1cccc(OCC[N+](CC)(CC)CC)c1OCC[N+](CC)(CC)CC` [pyrolaxon], the “histamine release” value ([5]; background) is given as “blocks parasympathetic ganglia and produces tachycardia”.

In the case of `C[N+](C)(C)CCOC(=O)CCC(=O)OCC[N+](C)(C)C` [succinylcholine, dicholine ester of succinic acid], the “duration of action in patients with hepatic dysfunction and low cholinesterase” value ([5]; common dose) is given as “can last for a period of a few hours”.
